Test [1] has as its target T1, FSHR (Homo sapiens, UniProt P23945).
T1 construct: expressed in transfected cells; host or cells: CHO (Cho-FSHR-LUC-1-1-43)
T1 sequence (P23945 18-695): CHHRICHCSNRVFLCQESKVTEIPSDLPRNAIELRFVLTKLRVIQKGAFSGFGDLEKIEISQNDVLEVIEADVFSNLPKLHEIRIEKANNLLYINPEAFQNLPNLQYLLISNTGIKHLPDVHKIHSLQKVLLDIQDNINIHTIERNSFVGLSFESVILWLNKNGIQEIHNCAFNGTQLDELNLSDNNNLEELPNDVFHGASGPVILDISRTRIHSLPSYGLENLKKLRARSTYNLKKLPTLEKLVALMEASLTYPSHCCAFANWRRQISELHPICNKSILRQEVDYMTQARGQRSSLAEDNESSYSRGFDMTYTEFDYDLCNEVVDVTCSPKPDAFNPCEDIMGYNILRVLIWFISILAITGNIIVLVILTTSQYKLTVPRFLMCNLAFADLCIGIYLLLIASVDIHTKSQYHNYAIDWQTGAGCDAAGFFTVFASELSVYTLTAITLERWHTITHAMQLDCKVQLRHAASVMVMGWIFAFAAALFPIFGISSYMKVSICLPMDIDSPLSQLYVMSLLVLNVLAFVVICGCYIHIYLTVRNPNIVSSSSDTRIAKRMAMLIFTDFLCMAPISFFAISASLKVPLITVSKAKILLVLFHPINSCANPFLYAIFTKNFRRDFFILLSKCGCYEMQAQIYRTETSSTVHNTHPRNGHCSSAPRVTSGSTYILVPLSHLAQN
Description: EC50 of cyclic AMP production in CHO FSHR cells + EC20 FSH (Assay A). The class given is cell-based. The note with it: cyclic AMP production in CHO FSHR cells + EC20 FSH (0.265 pM), HTRF. The method, then: Example 24. EC50 of cyclic AMP production in CHO FSHR cells+EC20 FSH (Assay A)
2500 Cho-FSHR-LUC-1-1-43 cells were plated per well in 5 al of phenol red free DMEM/F12+1% FBS. Cells were plated in 384 well, solid white low volume plates (Greiner 784075) by Multidrop. Cells were assayed by adding 100 al of 2×EC20 FSH/IBMX in DMEM/F12+0.1% BSA) by Multidrop to 2 al of test compound stamped in 384 well plates (compounds are diluted 1:50). The final FSH concentration was 0.265 pM, and the final IBMX concentration was 200 μM. The compound plate map was as follows: Column 1: 2 μl of DMSO; Column 2: 2 μl of DMSO; Columns 3-12 and 13-24: 2 μl of test compound, diluted 1:4 in 100% DMSO, or 2 μl of FSH, diluted 1:4 in DMEM/F12+0.1% BSA. The starting concentration for FSH was 50 nM (final concentration was 0.5 nM). Furthermore, Column 23 contained 2 μl of EC100 FSH reference (100×) (diluted in DMEM/F12+0.1% BSA) at a final concentration of 0.5 nM, and Column 24 contained 2 μl of 1 mM AS707664/2 reference compound 2. 5 μl of compound+EC20 FSH mixture were transferred to cell plates (1:2 dilution into 5 μl of cell media) The plates were incubated at 37° C. for 1 h. 10 μl of mixed HTRF (CisBio #62AM4PEC) reagents were added per well and incubated at room temperature for 1 h. The plates were read on Envision using the cAMP HTRF—low volume 384 well protocol. The readout was the calculated fluorescence ratio (665 nm/620 nm). Values given in percent (%) indicate the percental effect (response) at a certain concentration of agonist relative to the maximum response of the FSH standard.
For orientation: In TR-FRET formats the signal depends on donor and acceptor labels being close together.

Test [2] addresses T2, follicle-stimulating hormone (FSH) receptor (Rattus norvegicus, UniProt P20395).
T2 construct: endogenous in cells; host or cells: rat granulosa cells
T2 sequence (P20395 18-692): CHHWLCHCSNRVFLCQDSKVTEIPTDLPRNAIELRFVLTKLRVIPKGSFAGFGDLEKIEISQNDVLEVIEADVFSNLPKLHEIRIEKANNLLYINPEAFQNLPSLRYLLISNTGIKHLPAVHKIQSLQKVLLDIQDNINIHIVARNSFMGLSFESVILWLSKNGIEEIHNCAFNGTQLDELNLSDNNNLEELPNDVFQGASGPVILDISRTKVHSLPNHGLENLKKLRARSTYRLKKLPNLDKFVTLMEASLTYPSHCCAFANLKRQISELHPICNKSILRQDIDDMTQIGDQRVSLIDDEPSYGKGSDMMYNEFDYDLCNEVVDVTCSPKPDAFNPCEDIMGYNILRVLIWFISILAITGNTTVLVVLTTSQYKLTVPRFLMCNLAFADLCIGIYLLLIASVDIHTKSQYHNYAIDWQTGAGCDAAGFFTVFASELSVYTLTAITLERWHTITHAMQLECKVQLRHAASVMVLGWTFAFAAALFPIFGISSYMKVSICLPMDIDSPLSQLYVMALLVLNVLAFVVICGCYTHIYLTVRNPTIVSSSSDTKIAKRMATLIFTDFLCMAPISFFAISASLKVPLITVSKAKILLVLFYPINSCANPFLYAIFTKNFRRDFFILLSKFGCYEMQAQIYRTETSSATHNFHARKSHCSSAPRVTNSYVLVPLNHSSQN
Description: Rat granulosa EC50 FSH (Assay B). The class given is cell-based. The method, then: Example 25. Rat granulosa EC50 FSH (Assay B)
The assay was performed pursuant to the teaching of Yanofsky et al. (2006) Allosteric activation of the follicle-stimulating hormone (FSH) receptor by selective, nonpeptide agonists (JBC 281(19): 13226-13233, which is incorporated by reference in the disclosure of the invention).

The term EC50 denotes the concentration that produces a half-maximal response.

In the case of `COc1cc2c(cc1-c1ccccn1)-c1c(c(C(=O)N(C)C(C)(C)C)nn1-c1ccsc1)CO2` [Compound 58, N-tert-butyl-7-methoxy-N-methyl-8-(pyridin-2-yl)-1-(thiophen-3-yl)-1,4-dihydrochromeno[4,3-c]pyrazole-3-carboxamide], the EC50 in test [1] is 10 to 100 nM; in test [2], more than 500 nM.

Consider `COc1cc2c(cc1-c1cncc(C(N)=O)c1)-c1c(c(C(=O)N(C)C(C)(C)C)nn1-c1ccsc1)CO2` [Compound 167], for which the EC50 in test [1] was less than 10 nM; in test [2], 10 to 100 nM.

For the compound `COc1cc2c(cc1-c1cnn(CC(O)CO)c1)-c1c(c(C(=O)N(C)C(C)(C)C)nn1-c1cc(Cl)cc(Cl)c1)CO2` (single isomer, unassigned) [Compound 191, N-tert-butyl-1-(3,5-dichlorophenyl)-8-(1-(2,3-dihydroxypropyl)-1H-pyrazol-4-yl)-7-methoxy-N-methyl-1,4-dihydrochromeno[4,3-c]pyrazole-3-carboxamide], the EC50 in test [1] fell in the range of 10 to 100 nM; in test [2], 101 to 500 nM.

Consider `COc1cc2c(cc1-c1cc(C(=O)O)ccc1F)-c1c(c(C(=O)N(C)C(C)(C)C)nn1-c1cc(Cl)cc(Cl)c1)CO2` [Compound 82, 3-(3-(tert-butyl(methyl)carbamoyl)-1-(3,5-dichlorophenyl)-7-methoxy-1,4-dihydrochromeno[4,3-c]pyrazol-8-yl)-4-fluorobenzoic acid], for which the EC50 in test [1] was less than 10 nM; in test [2], more than 500 nM.

For the compound `[2H]C([2H])([2H])Oc1cc(Cl)cc(-n2nc(C(=O)N(C)C(C)(C)C)c3c2-c2cc(-c4cncc(C(N)=O)c4)c(OC([2H])([2H])[2H])cc2OC3)c1` [Compound 158], the results for the EC50 in test [1] and in test [2] were less than 10 nM and 10 to 100 nM, respectively.

`COc1cc2c(cc1-c1cc(C)cnc1OC)-c1c(c(C(=O)N(C)C(C)(C)C)nn1-c1cc(Cl)cc(Cl)c1)CO2` [Compound 189, N-tert-butyl-1-(3,5-dichlorophenyl)-7-methoxy-8-(2-methoxy-5-methylpyridin-3-yl)-N-methyl-1,4-dihydrochromeno[4,3-c]pyrazole-3-carboxamide]: the EC50 was in the range of 10 to 100 nM in test [1] and 101 to 500 nM in test [2].

In the case of `COc1cc2c(cc1-c1ccnc(C#N)c1)-c1c(c(C(=O)N(C)C(C)(C)C)nn1-c1cc(Cl)cc(Cl)c1)CO2` [Compound 21, N-tert-butyl-8-(2-cyanopyridin-4-yl)-1-(3,5-dichlorophenyl)-7-methoxy-N-methyl-1,4-dihydrochromeno[4,3-c]pyrazole-3-carboxamide], the EC50 in test [1] was less than 10 nM; in test [2], 10 to 100 nM.

As for `COc1cc2c(cc1-c1cnn(CCO)c1)-c1c(c(C(=O)N3CCOCC3(C)C)nn1-c1cc(F)cc(Cl)c1)CO2` [Compound 78, (1-(3-chloro-5-fluorophenyl)-8-(1-(2-hydroxyethyl)-1H-pyrazol-4-yl)-7-methoxy-1,4-dihydrochromeno[4,3-c]pyrazol-3-yl)(3,3-dimethylmorpholino)methanone], the concentration giving a half-maximal response (EC50) in test [1] is less than 10 nM; in test [2] it was 10 to 100 nM.

In the case of `COc1cc(OC)cc(-n2nc(C(=O)N(C)C(C)(C)C)c3c2-c2cc(-c4nn(C)cc4Br)c(OC)cc2OC3)c1` [Compound 145, 8-(4-bromo-1-methyl-1H-pyrazol-3-yl)-N-tert-butyl-1-(3,5-dimethoxyphenyl)-7-methoxy-N-methyl-1,4-dihydrochromeno[4,3-c]pyrazole-3-carboxamide], the values for the EC50 in test [1] and in test [2] were less than 10 nM and 101 to 500 nM, respectively.

Turning to `COc1cc2c(cc1-c1cncc(C(N)=O)c1)-c1c(c(C(=O)N(C)C(C)(C)C)nn1-c1cc(C)cc(F)c1)CO2` [Compound 173], the EC50 in test [1] was less than 10 nM; in test [2], 10 to 100 nM.

For the compound `COc1cc2c(cc1-c1cncc(NC(C)=O)c1)-c1c(c(C(=O)N(C)C(C)(C)C)nn1-c1cc(Cl)cc(Cl)c1)CO2` [Compound 182, 8-(5-acetamidopyridin-3-yl)-N-tert-butyl-1-(3,5-dichlorophenyl)-7-methoxy-N-methyl-1,4-dihydrochromeno[4,3-c]pyrazole-3-carboxamide], the EC50 in test [1] and in test [2] was less than 10 nM throughout.

The values above are taken from patent publication US10941152B2, “Pyrazole compounds as modulators of FSHR and uses thereof” (TOCOPHERX, INC., priority 2014, dated 2021).
